Test [1] can be described thus: Rat In Vivo Model of Myocardial Ischemia (free radical generator infusion). To be noted: 10 mg/kg iv; for Rat Ischemia Model % Infarction: percent of left ventricle infarcted of the animals with an infarct. Set-up: species or system male spontaneously hypertensive rats. The protocol: In this preparation a free radical generating (FRG) system consisting of purine (2.3 mM), xanthine oxidase (0.02 U/ml) and iron loaded transferring (0.6 μM) complex is infused into the carotid artery near the ostium of the coronary artery in spontaneously hypertensive rats. Blood is withdrawn before and 24 hours after the FRG challenge for measuring the isoenzymes of lactic acid dehydrogenase (LDH1 :LDH2). An increase in LDH1 :LDH2 ratio reflects cell damage to the myocardium. The electrocardiogram is also taken before and 24 hours after the FRG infusion. At the end of the experiment the heart is removed, sliced in a breadloaf fashion, and stained with triphenyltetrazolium chloride to determine infarct size. A drug or vehicle is administered intravenously 10-30 minutes before the FRG challenge. A drug is considered active if there is no elevation of the LDH1 :LDH2 ratio, no ECG abnormalities and no histologic evidence of an infarction.
Male spontaneously hypertensive rats (280-320 g) from Taconic Farms, were lightly anesthetized with sodium pentobarbital (30-50 mg/kg, i.p.). […] A catheter of PE 50 tubing was inserted into the right common carotid artery to a position proximal to the ostia of the coronary arteries and used to sample blood and infuse the free radical generator (FRG) system. A second catheter of PE 10 tubing was inserted into the left jugular vein to administer drugs. The infusion system for the FRG consisted of a double syringe infusion pump, Sage Model 351, with one syringe containing xanthine oxidase (0.01 units/ml) in a HEPES (0.05M) buffer and the other syringe containing purine (2.3 mM) plus Fe^3+ loaded transferring (0.06 μM) in a HEPES (0.05M) buffer. The FRG infused separately mixes simultaneously near the ostia of the coronary arteries. This infusion was delivered at a rate of 0.03 ml/minute for a total infusion time of 10 minutes. The drugs were infused over a one minute period in a 0.9% saline vehicle.
Standard Lead II ECG was monitored continuously on a Hewlett-Packard 7758A recorder prior to treatment, throughout the FRG infusion and 10 minutes post infusion. Catheters were removed and animals were allowed to recover and fed standard rat chow and water ad libitum. 24 hours following the FRG infusion, animals were reanesthetized with sodium pentobarbital (30-50 mg/kg, i.p.) and an ECG was obtained. Blood samples were taken prior to and after the FRG infusion and at the conclusion of the experiment. These samples were centrifuged and assayed for total lactate dehydrogenase (LDH) and lactate dehydrogenase isoenzymes (LDH1 :LDH2), using electrophoresis.
The animals were sacrificed, the hearts rapidly excised, and washed free of blood and sectioned. The left ventricle was weighed and stored in a Revco® freezer at -70° C. The left ventricle was sliced into 2 mm-thick rings, incubated in a 1% triphenyltetrazolium chloride solution for 20 minutes, and then fixed in a 10% formalin solution. Infarcted areas were measured and quantitated as a percentage of the total left ventricular volume.

Test [2] concerns ear edema. The experiment in a line: Mouse Ear Edema Test (In Vivo), arachidonic acid. The arrangement: species or system CD-1 male mice. To be noted: topical, 1 h, at 1 mg topically. From the text:
Invest. Dermatol. 80:48 (1983) and Hames, Opas and Bonney, "Arachidonic Acid Metabolites in Mouse Ear Edema" Advances in Inflammation Research, 11:57 (1986). […] CD-1 male mice weighing 15 to 25 g were employed, and they were designated as follows: (1) Control Group, in which no arachidonic acid or test compound was to be applied, (2) Arachidonic Acid-Treated Group, in which no test compound was to be applied, and (3) Treated Group, in which the test compound was to be applied first, followed by the application of arachidonic acid. In the case of the Group (3) animals, the test compound, dissolved in acetone, was applied to the dorsal surface of the right ear of the mouse with a 25-microliter pipettor, with the dose of the test compound being varied. After 0.5 hours in some cases and 4 hours in others, the arachidonic acid was topically applied in the same manner as above to the pretreated ear areas. In each case of arachidonic acid application, an amount of 0.5 mg dissolved in 25 microliters of acetone was used. After 1 hour, the mice were sacrificed by carbon dioxide inhalation. A 6 mm-diameter standard biopsy punch was used to obtain a uniform tissue sample from the ear of each mouse so treated, and the tissue samples were weighed to the nearest 0.1 mg. The percent inhibition of ear edema formation was calculated as follows: [formula]

The subject of test [3] is myeloperoxidase accumulation (acetic acid-induced colitis). The experiment in a line: Acetic Acid-Induced Colitis in Rats, In Vivo. Set-up: species or system male rats (Sprague-Dawley). The source says:
The rat acetic acid-induced colitis bioassay has been described by J. E. Krawisz, et al. in Amer. J. Proc. Gastro. Col. Rec. Surg. 31: 11-18 (1980), and by P. Sharon and W. F. Stenson in Gastroenterolgy 88: 55-63 (1985) and 86: 453-460 (1984). Acetic acid-induced colitis is characterized by the movement of inflammatory cells into the colon, with the number of such cells in the mucosa being measured by the activity of myeloperoxidase, a marker enzyme for these cells. Positive desirable activity is indicated by a reduction in the high levels of myeloperoxidase caused by acetic acid. Male rats (Sprague-Dawley), weighing 150 to 300 g, were pretreated twice daily for two days with either the vehicle (water, or dimethylsulfoxide) or the test inhibitor compound suspended in water or dissolved in dimethylsulfoxide and orally administered. On the third day, the animals were dosed the same as on the previous two days, anesthetized with metofane, and 2 ml of 2.5% acetic acid was injected by syringe into the colonic lumen, followed immediately by 3 ml of air and a rinse consisting of 3 ml of phosphate-buffered saline (the acetic acid is present in the lumen for a sufficient period to cause inflammation without producing severe necrosis or irreversible damage). The animals were administered a second dose of the test compound in the same amount about 16 hours later. 24 hours after the acetic acid treatment, the animals were sacrificed, the colonic mucosa was surgically removed and homogenized in an aqueous buffer at pH 6 with a Tissumizer or similar device and myeloperoxidase was measured in the homogenate using o-phenylenediamine as a chromagen, as described by A. Voller, D. E. Bidwell and A. Bartlett in The Enzyme Linked Immunosorbent Assay (ELISA), Zoological Soc., London, 1979, pages 29-30. Control animals were pretreated with the vehicle and saline in place of acetic acid.

Test [4] deals with Carrageenan pleurisy. Nature of the test: Carrageenan Pleurisy Test (In Vivo). The arrangement: species or system male Lewis rats. To be noted: Rattus norvegicus, po, read-out: Rat Carrageenan Pleurisy % Inhib. of Exudate Volume; for inhibition in vivo at 100 mg/kg: at 100 mg/kg p.o.

In the case of `CCCc1c(OCCCCCc2cccc(O)c2O)ccc(C(=O)O)c1O` [4-[5-(2,3-Dihydroxyphenyl)pentyloxy]-2-hydroxy-3-propylbenzoic acid], in test [1], the “Rat Ischemia Model Infarcts/Total” value is reported as 4/5 and the “Rat Ischemia Model % Infarction” value worked out at 15%. The molecule further displayed an inhibition in vivo at 1 mg in test [2] of 0%. Also, the “Rat Acetic Acid Colitis Model % Inhib. of Myeloperoxidase Accumulation” value in test [3] (1 mg/kg p.o) was found to be 96 ± 13%. Also, the inhibition in vivo at 100 mg/kg in test [4] amounted to 63%.

In the case of `CCCc1c(OCCCCCCc2cccc(O)c2O)ccc(C(=O)O)c1O` [4-[6-(2,3-Dihydroxyphenyl)hexyloxy]-2-hydroxy-3-propylbenzoic acid], in test [1], the “Rat Ischemia Model Infarcts/Total” value was 4/5 and the “Rat Ischemia Model % Infarction” value came to 8%. Also, the inhibition in vivo at 1 mg in test [2] amounted to 46%. Moreover, the “Rat Acetic Acid Colitis Model % Inhib. of Myeloperoxidase Accumulation” value in test [3] (10 mg/kg p.o) turned out to be 42 ± 2%. For the same molecule, the “Rat Acetic Acid Colitis Model % Inhib. of Myeloperoxidase Accumulation” value in test [3] (30 mg/kg p.o) is reported as 67 ± 15%. Further, the inhibition in vivo at 100 mg/kg in test [4] was 68%.

For `O=C(O)c1ccc(OCCCCCCc2cccc(O)c2O)cc1O` [4-[6-(2,3-Dihydroxyphenyl)hexyloxy]-2-hydroxybenzoic acid], in test [1], the “Rat Ischemia Model Infarcts/Total” value is 3/5 and the “Rat Ischemia Model % Infarction” value is 10%. This molecule had an inhibition in vivo at 1 mg in test [2] of 50%. The “Rat Acetic Acid Colitis Model % Inhib. of Myeloperoxidase Accumulation” value in test [3] (1 mg/kg p.o) came out at 82 ± 9%. Besides, the “Rat Acetic Acid Colitis Model % Inhib. of Myeloperoxidase Accumulation” value in test [3] (3 mg/kg p.o) was 81 ± 15%. Also, the inhibition in vivo at 100 mg/kg in test [4] is 0%.

Turning to `O=C(O)c1ccc(OCCCCCCc2cccc(O)c2O)cc1` [4-[6-(2,3-Dihydroxyphenyl)hexyloxy]benzoic acid], in test [1], the “Rat Ischemia Model Infarcts/Total” value was 2/5 and the “Rat Ischemia Model % Infarction” value was found to be 19%. For the same molecule, the inhibition in vivo at 1 mg in test [2] was found to be 48%. Also, in test [3] (3 mg/kg p.o), the “Rat Acetic Acid Colitis Model % Inhib. of Myeloperoxidase Accumulation” value is reported as 79 ± 8%. For the same molecule, the “Rat Acetic Acid Colitis Model % Inhib. of Myeloperoxidase Accumulation” value in test [3] (10 mg/kg p.o) was 89 ± 28%. Also, the inhibition in vivo at 100 mg/kg in test [4] stood at 46%.

As for `CCCc1c(OCCCCCCc2ccc(C(C)C)c(O)c2O)ccc(C(=O)O)c1O` [4-[6-[2,3-dihydroxy-4-(1-methylethyl)phenyl]hexyloxy]-2-hydroxy-3-propylbenzoic acid], in test [1], the “Rat Ischemia Model Infarcts/Total” value is 1/5 and the “Rat Ischemia Model % Infarction” value stood at 5%. Besides, in test [2], the inhibition in vivo at 1 mg is 45%. Besides, the “Rat Acetic Acid Colitis Model % Inhib. of Myeloperoxidase Accumulation” value in test [3] (10 mg/kg p.o) turned out to be 53 ± 12%. Also, the “Rat Acetic Acid Colitis Model % Inhib. of Myeloperoxidase Accumulation” value in test [3] (100 mg/kg p.o) is reported as 86 ± 9%. Moreover, the inhibition in vivo at 75 mg/kg in test [4] (at 75 mg/kg p.o) stood at 47%.

Take `CCCc1c(OCCCCCCCCc2cccc(O)c2O)ccc(C(=O)O)c1O` [4-[8-(2,3-dihydroxyphenyl)octyloxy]-2-hydroxy-3-propylbenzoic acid]: in test [1], the “Rat Ischemia Model Infarcts/Total” value is 1/5 and the “Rat Ischemia Model % Infarction” value is recorded as 8%. The molecule further showed an inhibition in vivo at 1 mg in test [2] of 78%. In addition, the “Rat Acetic Acid Colitis Model % Inhib. of Myeloperoxidase Accumulation” value in test [3] (10 mg/kg p.o) is 35 ± 7%. Further, in test [3] (100 mg/kg p.o), the “Rat Acetic Acid Colitis Model % Inhib. of Myeloperoxidase Accumulation” value was found to be 27 ± 3%. Also, the inhibition in vivo at 100 mg/kg in test [4] turned out to be 66%.

For the origin of these results see US5025036A, “Catechol carboxylic acids” (Hoffmann-La Roche Inc., priority 1989, dated 1991).
